# Species: Rattus norvegicus
# Experiment: Open TG-GATES - Regimen: Daily Repeat
# Format: toxicity, organism-based, Sprague-Dawley
# Set-up: regimen Daily Repeat, gender Male, age 6 weeks
# Conditions: in vivo, po, route gavage; for APTT / Bas / Eos / Fbg / Hb / Ht / Lym / MCHC / MCV / Mono / Neu / PT / Plat / RBC / Ret / WBC / MCH: tissue Blood; for KIDNEY_L / KIDNEY_R / KIDNEY_TOTAL: tissue Kidney; for LIVER: tissue Liver; for ALP / ALT / AST / BUN / CRE / Ca / DBIL / GLC / K / LDH / Na / PL / RALB / TBIL / TC / TG / TP / gamma-GTP: tissue Plasma
# [1] = 0 mg/kg, 72 h, dose level Control, time 3 day
# [2] = 0 mg/kg, […], dose level Control, time 7 day
# [3] = 0 mg/kg, […], dose level Control, time 14 day
# [4] = 0 mg/kg, […], dose level Control, time 28 day
# [5] = 20 mg/kg, 72 h, dose level Low, time 3 day
# [6] = 20 mg/kg, […], dose level Low, time 7 day
# [7] = 20 mg/kg, […], dose level Low, time 14 day
# [8] = 20 mg/kg, […], dose level Low, time 28 day
structure (smiles),measurement,setting,value
CCCCc1oc2ccccc2c1C(=O)c1cc(I)c(OCCN(CC)CC)c(I)c1 [AMIODARONE],TERMINAL_BW,[1],226.9 g
same,APTT,[1],18.2 s
same,Bas,[1],0%
same,Eos,[1],0.8%
same,Fbg,[1],229 mg/dL
same,Hb,[1],13.5 g/dL
same,Ht,[1],39.6%
same,Lym,[1],74.8%
same,MCHC,[1],34.1%
same,MCV,[1],62.7 fL
same,Mono,[1],3%
same,Neu,[1],20.4%
same,PT,[1],12.3 s
same,Plat,[1],122.3 x10_4/uL
same,RBC,[1],631.4 x10_4/ul
same,Ret,[1],6.4%
same,WBC,[1],91.2 x10_2/uL
same,KIDNEY_L,[1],1 g
same,KIDNEY_R,[1],1 g
same,KIDNEY_TOTAL,[1],2 g
same,LIVER,[1],11.2 g
same,ALP,[1],985.8 IU/L
same,ALT,[1],37.8 IU/L
same,AST,[1],72.6 IU/L
same,BUN,[1],16.2 mg/dL
same,CRE,[1],0.4 mg/dL
same,Ca,[1],10.9 mg/dL
same,DBIL,[1],0.096 mg/dL
same,GLC,[1],207.4 mg/dL
same,K,[1],3.9 meq/L
same,LDH,[1],213 IU/L
same,Na,[1],140.6 meq/L
same,PL,[1],162.4 mg/dL
same,RALB,[1],3.5 g/dL
same,TBIL,[1],0.1 mg/dL
same,TC,[1],77.6 mg/dL
same,TG,[1],113.2 mg/dL
same,TP,[1],5.8 g/dL
same,gamma-GTP,[1],1 IU/L
same,TERMINAL_BW,[2],253.9 g
same,TERMINAL_BW,[3],312.1 g
same,TERMINAL_BW,[4],382 g
same,APTT,[2],19.5 s
same,Bas,[2],0%
same,Eos,[2],1%
same,Fbg,[2],218.2 mg/dL
same,Hb,[2],13.6 g/dL
same,Ht,[2],39.8%
same,Lym,[2],78.4%
same,MCH,[2],21.2 pg
same,MCV,[2],61.9 fL
same,Mono,[2],2.4%
same,Neu,[2],17%
same,PT,[2],12 s
same,Plat,[2],117.4 x10_4/uL
same,RBC,[2],642.8 x10_4/ul
same,Ret,[2],5.1%
same,WBC,[2],102.5 x10_2/uL
same,APTT,[3],19.9 s
same,Bas,[3],0%
same,Eos,[3],0.8%
same,Fbg,[3],231.8 mg/dL
same,Hb,[3],14.4 g/dL
same,Ht,[3],41.2%
same,Lym,[3],81.4%
same,MCH,[3],20.9 pg
same,MCHC,[3],34.8%
same,MCV,[3],59.9 fL
same,Mono,[3],2.8%
same,Neu,[3],13.8%
same,Plat,[3],128.6 x10_4/uL
same,RBC,[3],689.2 x10_4/ul
same,Ret,[3],4.6%
same,WBC,[3],85.2 x10_2/uL
same,APTT,[4],21.2 s
same,Bas,[4],0%
same,Eos,[4],1%
same,Fbg,[4],224.6 mg/dL
same,Hb,[4],15.5 g/dL
same,Ht,[4],43.9%
same,Lym,[4],78.4%
same,MCH,[4],19.9 pg
same,MCHC,[4],35.4%
same,MCV,[4],56.3 fL
same,Mono,[4],2.4%
same,Neu,[4],17.2%
same,PT,[4],12.4 s
same,Plat,[4],111.1 x10_4/uL
same,RBC,[4],779.2 x10_4/ul
same,Ret,[4],2.6%
same,WBC,[4],92.4 x10_2/uL
same,KIDNEY_L,[2],1.1 g
same,KIDNEY_R,[2],1.1 g
same,KIDNEY_TOTAL,[2],2.2 g
same,KIDNEY_L,[3],1.2 g
same,KIDNEY_R,[3],1.2 g
same,KIDNEY_TOTAL,[3],2.5 g
same,KIDNEY_L,[4],1.4 g
same,KIDNEY_R,[4],1.3 g
same,KIDNEY_TOTAL,[4],2.7 g
same,LIVER,[2],12.1 g
same,LIVER,[3],14.6 g
same,LIVER,[4],15 g
same,ALP,[2],963.6 IU/L
same,ALT,[2],34 IU/L
same,AST,[2],62.6 IU/L
same,BUN,[2],16.6 mg/dL
same,CRE,[2],0.4 mg/dL
same,Ca,[2],10.6 mg/dL
same,DBIL,[2],0.1 mg/dL
same,GLC,[2],209.6 mg/dL
same,K,[2],3.8 meq/L
same,LDH,[2],179.6 IU/L
same,Na,[2],140.4 meq/L
same,PL,[2],158.4 mg/dL
same,RALB,[2],3.4 g/dL
same,TBIL,[2],0.2 mg/dL
same,TC,[2],73.6 mg/dL
same,TG,[2],116.6 mg/dL
same,TP,[2],5.6 g/dL
same,gamma-GTP,[2],1.6 IU/L
same,ALP,[3],896.2 IU/L
same,ALT,[3],40.6 IU/L
same,AST,[3],70.8 IU/L
same,BUN,[3],16.6 mg/dL
same,CRE,[3],0.5 mg/dL
same,Ca,[3],10.7 mg/dL
same,DBIL,[3],0.09 mg/dL
same,GLC,[3],233.8 mg/dL
same,K,[3],3.5 meq/L
same,LDH,[3],206.4 IU/L
same,Na,[3],140.2 meq/L
same,PL,[3],160.8 mg/dL
same,RALB,[3],3.5 g/dL
same,TBIL,[3],0.2 mg/dL
same,TG,[3],117 mg/dL
same,TP,[3],6 g/dL
same,gamma-GTP,[3],1 IU/L
same,ALP,[4],614.8 IU/L
same,ALT,[4],37.6 IU/L
same,AST,[4],61.6 IU/L
same,BUN,[4],17.4 mg/dL
same,CRE,[4],0.4 mg/dL
same,Ca,[4],10.4 mg/dL
same,DBIL,[4],0.1 mg/dL
same,GLC,[4],214.4 mg/dL
same,K,[4],3.7 meq/L
same,LDH,[4],158.6 IU/L
same,Na,[4],140.2 meq/L
same,PL,[4],151 mg/dL
same,RALB,[4],3.4 g/dL
same,TBIL,[4],0.2 mg/dL
same,TC,[4],67 mg/dL
same,TG,[4],152.4 mg/dL
same,TP,[4],6 g/dL
same,gamma-GTP,[4],1 IU/L
same,TERMINAL_BW,[5],226.2 g
same,Bas,[5],0%
same,Eos,[5],0.8%
same,Fbg,[5],227.8 mg/dL
same,Hb,[5],13.5 g/dL
same,Ht,[5],39%
same,Lym,[5],78.2%
same,MCH,[5],22.1 pg
same,MCV,[5],63.9 fL
same,Mono,[5],3%
same,Neu,[5],16.6%
same,PT,[5],12.8 s
same,Plat,[5],125.2 x10_4/uL
same,RBC,[5],610.8 x10_4/ul
same,Ret,[5],6.1%
same,WBC,[5],101.8 x10_2/uL
same,KIDNEY_L,[5],1 g
same,KIDNEY_R,[5],1 g
same,KIDNEY_TOTAL,[5],2.1 g
same,LIVER,[5],11 g
same,ALP,[5],1159.8 IU/L
same,ALT,[5],38.8 IU/L
same,AST,[5],71 IU/L
same,BUN,[5],17 mg/dL
same,CRE,[5],0.4 mg/dL
same,Ca,[5],10.7 mg/dL
same,DBIL,[5],0.088 mg/dL
same,GLC,[5],200 mg/dL
same,K,[5],3.8 meq/L
same,LDH,[5],215.2 IU/L
same,Na,[5],140.4 meq/L
same,PL,[5],144.2 mg/dL
same,RALB,[5],3.4 g/dL
same,TBIL,[5],0.1 mg/dL
same,TC,[5],72.8 mg/dL
same,TG,[5],88.8 mg/dL
same,TP,[5],5.7 g/dL
same,gamma-GTP,[5],1.6 IU/L
same,TERMINAL_BW,[6],267.4 g
same,TERMINAL_BW,[7],322 g
same,TERMINAL_BW,[8],379.8 g
same,APTT,[6],18.5 s
same,Bas,[6],0%
same,Eos,[6],0.8%
same,Fbg,[6],222 mg/dL
same,Ht,[6],39.1%
same,Lym,[6],79.6%
same,MCH,[6],21.1 pg
same,MCHC,[6],34.1%
same,MCV,[6],62 fL
same,Mono,[6],2.8%
same,Neu,[6],15.6%
same,Plat,[6],126.6 x10_4/uL
same,RBC,[6],630 x10_4/ul
same,Ret,[6],6.1%
same,WBC,[6],117.1 x10_2/uL
same,APTT,[7],19.7 s
same,Bas,[7],0%
same,Eos,[7],1%
same,Fbg,[7],216.8 mg/dL
same,Hb,[7],14.2 g/dL
same,Ht,[7],41.2%
same,Lym,[7],79.6%
same,MCH,[7],20.4 pg
same,MCV,[7],59.2 fL
same,Mono,[7],2.8%
same,Neu,[7],15.6%
same,PT,[7],12.8 s
same,Plat,[7],116.8 x10_4/uL
same,RBC,[7],696.4 x10_4/ul
same,Ret,[7],4.6%
same,WBC,[7],84.5 x10_2/uL
same,APTT,[8],19.6 s
same,Bas,[8],0%
same,Eos,[8],1.2%
same,Fbg,[8],221.6 mg/dL
same,Ht,[8],43.5%
same,Lym,[8],78.2%
same,MCH,[8],19.6 pg
same,MCHC,[8],35.1%
same,MCV,[8],56 fL
same,Mono,[8],2.8%
same,Neu,[8],16.6%
same,PT,[8],12.3 s
same,Plat,[8],109.6 x10_4/uL
same,RBC,[8],777.2 x10_4/ul
same,Ret,[8],2.7%
same,WBC,[8],117.6 x10_2/uL
same,KIDNEY_L,[6],1.1 g
same,KIDNEY_R,[6],1.1 g
same,KIDNEY_TOTAL,[6],2.2 g
same,KIDNEY_L,[7],1.3 g
same,KIDNEY_R,[7],1.3 g
same,KIDNEY_TOTAL,[7],2.5 g
same,KIDNEY_L,[8],1.3 g
same,KIDNEY_R,[8],1.3 g
same,KIDNEY_TOTAL,[8],2.6 g
same,LIVER,[6],12.7 g
same,LIVER,[7],14.6 g
same,LIVER,[8],15.5 g
same,ALP,[6],1065 IU/L
same,ALT,[6],33 IU/L
same,AST,[6],61.8 IU/L
same,CRE,[6],0.4 mg/dL
same,Ca,[6],10.7 mg/dL
same,DBIL,[6],0.1 mg/dL
same,GLC,[6],216.6 mg/dL
same,K,[6],3.8 meq/L
same,LDH,[6],197.4 IU/L
same,Na,[6],140.6 meq/L
same,RALB,[6],3.3 g/dL
same,TBIL,[6],0.2 mg/dL
same,TC,[6],70.8 mg/dL
same,TG,[6],89.4 mg/dL
same,TP,[6],5.5 g/dL
same,gamma-GTP,[6],1.2 IU/L
same,ALP,[7],861.4 IU/L
same,ALT,[7],38 IU/L
same,AST,[7],63.6 IU/L
same,BUN,[7],17.4 mg/dL
same,CRE,[7],0.4 mg/dL
same,Ca,[7],10.5 mg/dL
same,DBIL,[7],0.1 mg/dL
same,GLC,[7],220.6 mg/dL
same,K,[7],4 meq/L
same,LDH,[7],196.2 IU/L
same,Na,[7],139.6 meq/L
same,PL,[7],161.6 mg/dL
same,RALB,[7],3.3 g/dL
same,TBIL,[7],0.2 mg/dL
same,TC,[7],81.2 mg/dL
same,TG,[7],148.2 mg/dL
same,TP,[7],5.7 g/dL
same,gamma-GTP,[7],1.4 IU/L
same,ALP,[8],765.6 IU/L
same,ALT,[8],40 IU/L
same,AST,[8],66.2 IU/L
same,BUN,[8],18.2 mg/dL
same,CRE,[8],0.5 mg/dL
same,Ca,[8],10.5 mg/dL
same,DBIL,[8],0.1 mg/dL
same,GLC,[8],213.2 mg/dL
same,K,[8],3.8 meq/L
same,LDH,[8],192.6 IU/L
same,Na,[8],140.4 meq/L
same,PL,[8],160.8 mg/dL
same,RALB,[8],3.5 g/dL
same,TBIL,[8],0.2 mg/dL
same,TC,[8],73.8 mg/dL
same,TG,[8],164.6 mg/dL
same,TP,[8],6.1 g/dL
same,gamma-GTP,[8],1.4 IU/L

# Reference: ChEMBL document CHEMBL3885861, “Open TG-GATES”
